Measurements reported in US3954972A, “Antibiotic A-26771 factor” (Eli Lilly and Company, priority 1975, dated 1976).
Entries after “also recorded” stand apart in the source; their conditions may differ. Like-named read-outs stand apart in the source and are kept apart here.

How the values were obtained:
[1] = tested on: Coxsackie virus A-21 (COE strain); assay: microbe, parasite or virus in culture; assay type: cell-based; details: read-out: diameter of zone of virus inhibition
[2] = tested on: several viruses, including polioviruses and Coxsackie virus; assay type: cell-based
[3] = tested on: Type III poliovirus; assay: microbe, parasite or virus in culture; assay type: cell-based
[4] = tested on: Vibrio coli; assay: microbe, parasite or virus in culture; details: Campylobacter coli
[5] = tested on: Erwinia amylovora; assay: microbe, parasite or virus in culture
[6] = tested on: Candida tropicalis; assay: microbe, parasite or virus in culture
[7] = tested on: Trichophyton mentagrophytes; assay: microbe, parasite or virus in culture
[8] = tested on: Saccharomyces pastorianum; assay: microbe, parasite or virus in culture; assay type: cell-based
[9] = tested on: Staphylococcus aureus; assay: microbe, parasite or virus in culture
[10] = tested on: Sarcina lutea; assay: microbe, parasite or virus in culture; assay type: cell-based; details: Micrococcus luteus
[11] = tested on: Mycoplasma granularum; assay: microbe, parasite or virus in culture; details: Acholeplasma granularum
[12] = tested on: Staphylococcus aureus; assay: microbe, parasite or virus in culture; assay type: cell-based
[13] = tested on: Mycoplasma gallisepticum; assay: microbe, parasite or virus in culture; details: Mycoplasmoides gallisepticum
[14] = tested on: Botrytis cinerea; assay: in vitro susceptibility (MIC), Botrytis cinerea; assay type: cell-based
[15] = tested on: Pasteurella multocida; assay: microbe, parasite or virus in culture
[16] = tested on: Mycoplasma hyopneumoniae; assay: microbe, parasite or virus in culture; details: Mesomycoplasma hyopneumoniae
[17] = tested on: Verticillium albo-atrum; assay: in vitro susceptibility (MIC), Verticillium albo-atrum; assay type: cell-based
[18] = tested on: Streptococcus faecalis; assay: microbe, parasite or virus in culture; details: Enterococcus faecalis
[19] = tested on: Neurospora crassa; assay: microbe, parasite or virus in culture; assay type: cell-based
[20] = tested on: Mycoplasma synoviae; assay: microbe, parasite or virus in culture; details: Mycoplasmopsis synoviae
[21] = tested on: Trichophyton mentagrophytes; assay: microbe, parasite or virus in culture; assay type: cell-based
[22] = tested on: Mycoplasma hyosynoviae; assay: microbe, parasite or virus in culture
[23] = tested on: Ceratocystis ulmi; assay: in vitro susceptibility (MIC), Ceratocystis ulmi; assay type: cell-based
[24] = tested on: Bacillus subtilis; assay: microbe, parasite or virus in culture; assay type: cell-based
[25] = tested on: Xanthomonas phaseoli; assay: microbe, parasite or virus in culture
[26] = tested on: Serratia marcescens; assay: microbe, parasite or virus in culture; assay type: cell-based
[27] = tested on: poliovirus III; assay type: in vivo, mice; details: for Z (zone diameter of viral inhibition by serum): BSC1 cells
[28] = tested on: Escherichia coli; assay: microbe, parasite or virus in culture; assay type: cell-based
[29] = tested on: Candida albicans; assay: microbe, parasite or virus in culture; assay type: cell-based
[30] = tested on: White Swiss mice; assay: survival of mice after intraperitoneal injection; details: groups of four mice
[31] = electrometric titration; assay type: physicochemical; details: 66 percent dimethylformamide
[32] = tested on: Klebsiella pneumoniae; assay: microbe, parasite or virus in culture; assay type: cell-based
[33] = tested on: Mycobacterium avium; assay: disc-plate assay, Mycobacterium avium; assay type: cell-based
[34] = tested on: Fusarium moniliforme; assay: microbe, parasite or virus in culture; assay type: cell-based; details: Fusarium verticillioides
[35] = Enterovirus C; read-out: diameter of zone of virus inhibition
[36] = 29 mg./kg. intraperitoneal, One Hour
[37] = 29 mg./kg. intraperitoneal, Six Hours
[38] = 58 mg./kg. intraperitoneal, One Hour
[39] = 58 mg./kg. intraperitoneal, Six Hours
[40] = 117 mg./kg. intraperitoneal, One Hour
[41] = 234 mg./kg. intraperitoneal, One Hour
[42] = Enterovirus C, read-out: diameter of zone of virus inhibition

**Q.** What does the source list for `CN1C(=O)C2(Cc3ccccc3)SSSSC1(CO)C(=O)N2C` (centres unmarked) [Factor C, 3-benzyl-6-(hydroxymethyl)-1,4-dimethyl-3,6-epitetrathio-2,5-piperazinedione]?
**A.** zone of inhibition at 100 µg/mL [1]: 40 mm; zone of inhibition at 1000 µg/mL [1]: 50 mm; antiviral activity [2]: demonstrated against several viruses, including polioviruses and Coxsackie virus; also recorded: antiviral agents; also recorded: antiviral activity; zone of inhibition at 100 µg/mL [3, 35]: 40 mm; zone of inhibition at 1000 µg/mL [3, 35]: 50 mm

**Q.** Which results are given for `CC1CCCCCCCCCC(OC(=O)CCC(=O)O)C(=O)/C=C/C(=O)O1` (centres unmarked) [Factor B, mono(16-methyl-2,5-dioxooxacyclohexadec-3-en-6-yl) succinate]?
**A.** MIC [4]: 50 µg/mL; MIC [5]: < 0.78 µg/mL; MIC [6]: 100 µg/mL; MIC [7]: 6.25 µg/mL; zone of inhibition at 100 µg/mL [8]: 12 mm; zone of inhibition at 1000 µg/mL [8]: 25 mm; MIC [9]: < 1.56 µg/mL; zone of inhibition at 100 µg/mL [10]: 12 mm; zone of inhibition at 1000 µg/mL [10]: 22 mm; MIC [11]: 50 µg/mL; zone of inhibition at 100 µg/mL [12]: 15 mm; zone of inhibition at 1000 µg/mL [12]: 24 mm; MIC [13]: 3.12 µg/mL; MIC [14]: 12.5 µg/mL; MIC [15]: 6.25 µg/mL; MIC [16]: 12.5 µg/mL; MIC [17]: 50 µg/mL; MIC [18]: 25 µg/mL; zone of inhibition at 1000 µg/mL [19]: 13 mm; MIC [20]: 12.5 µg/mL; zone of inhibition at 1000 µg/mL [21]: 14 mm; MIC [22]: 12.5 µg/mL; MIC [23]: 6.25 µg/mL; zone of inhibition at 1000 µg/mL [24]: 14 mm; MIC [25]: 50 µg/mL

**Q.** Which results are given for `CN1C(=O)C2(Cc3ccccc3)SSC1(CO)C(=O)N2C` (single isomer, unassigned) [Factor A, 3-benzyl-6-(hydroxymethyl)-1,4-dimethyl-3,6-epidithio-2,5-piperazinedione]?
**A.** zone of inhibition at 100 µg/mL [8]: 19 mm; zone of inhibition at 1000 µg/mL [8]: 32 mm; zone of inhibition at 100 µg/mL [10]: 18 mm; zone of inhibition at 1000 µg/mL [10]: 28 mm; zone of inhibition at 100 µg/mL [12]: 12 mm; zone of inhibition at 1000 µg/mL [12]: 23 mm; zone of inhibition at 1.5 µg/mL [1]: 15 mm; zone of inhibition at 3.2 µg/mL [1]: 20 mm; zone of inhibition at 7.5 µg/mL [1]: 26 mm; zone of inhibition at 15 µg/mL [1]: 32 mm; zone of inhibition at 31.1 µg/mL [1]: 35 mm; zone of inhibition at 62.2 µg/mL [1]: 38 mm; zone of inhibition at 125 µg/mL [1]: 40 mm; zone of inhibition at 250 µg/mL [1]: 45 mm; zone of inhibition at 500 µg/mL [1]: 50 mm; zone of inhibition at 1000 µg/mL [1]: 52 mm; antiviral activity ([2]; tissue culture): demonstrated against several viruses, including polioviruses and Coxsackie virus; also recorded: antiviral agents; also recorded: antiviral activity; zone of inhibition at 1000 µg/mL [26]: 14 mm; Z (zone diameter of viral inhibition by serum) [27, 36]: 20 millimeters; Z (zone diameter of viral inhibition by serum) [27, 37]: 18 millimeters; Z (zone diameter of viral inhibition by serum) [27, 38]: 24 millimeters; Z (zone diameter of viral inhibition by serum) [27, 39]: 23 millimeters; Z (zone diameter of viral inhibition by serum) [27, 40]: 29 millimeters; Z (zone diameter of viral inhibition by serum) [27, 41]: 30 millimeters; antiviral activity in vivo ([27]; biological activity of serum levels in mice): demonstrated in vivo from the biological activity of serum levels in mice; zone of inhibition at 1000 µg/mL [28]: 12 mm; zone of inhibition at 100 µg/mL [19]: 13 mm; zone of inhibition at 1000 µg/mL [19]: 27 mm; zone of inhibition at 1000 µg/mL [29]: 28 mm; Survivors [30, 36]: 4; Survivors [30, 37]: 4; Survivors [30, 38]: 4; Survivors [30, 39]: 4; Survivors [30, 40]: 4; Survivors ([30]; 117 mg./kg. intraperitoneal, Six Hours): 0; Survivors [30, 41]: 4; Survivors ([30]; 234 mg./kg. intraperitoneal, Six Hours): 0; zone of inhibition at 100 µg/mL [21]: 19 mm; zone of inhibition at 1000 µg/mL [21]: 27 mm; titratable groups [31]: did not indicate the presence of titratable groups; zone of inhibition at 1000 µg/mL [32]: 12 mm; zone of inhibition at 100 µg/mL [24]: 11 mm; zone of inhibition at 1000 µg/mL [24]: 22 mm; zone of inhibition at 1.5 µg/mL [3, 42]: 16 mm; zone of inhibition at 3.2 µg/mL [3, 42]: 24 mm; zone of inhibition at 7.5 µg/mL [3, 42]: 30 mm; zone of inhibition at 15 µg/mL [3, 42]: 34 mm; zone of inhibition at 31.1 µg/mL [3, 42]: 38 mm; zone of inhibition at 62.2 µg/mL [3, 42]: 40 mm; zone of inhibition at 125 µg/mL [3, 42]: 44 mm; zone of inhibition at 250 µg/mL [3, 42]: 46 mm; zone of inhibition at 500 µg/mL [3, 42]: 50 mm; zone of inhibition at 1000 µg/mL [3, 42]: 50 mm; zone of inhibition at 1000 µg/mL [33]: 14 mm; zone of inhibition at 100 µg/mL [34]: 10 mm; zone of inhibition at 1000 µg/mL [34]: 14 mm
